PubChem BioAssay AID588780 (Sanford-Burnham Center for Chemical Genomics, 2011)
The source made the active and inactive calls.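 The calls were made as follows: active = compounds whose fitted half-maximal concentration in the cell-protection dose series is at or below a set limit; inactive = the rest.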

system: H9c2 cardiomyocytes, 2-deoxyglucose stress, ATP luminescence, 2 h; assay: protection of cardiomyocytes from 2-deoxyglucose injury, dose response, cell-based, 2-deoxyglucose stress, uHTS hits (AID 588780)

Compound | IC50
O=C(CSc1nnc(-c2cccnc2)o1)c1cc2ccccc2oc1=O | 67 µM (inactive)
N#Cc1ccccc1OCC(=O)Nc1nc(-c2ccccn2)cs1 | > 79 µM (inactive)
Cn1c(=O)[nH]c(=O)c2c1nc(Br)n2CC(O)COc1ccc(Cl)cc1 (centres undefined) | 15.2 µM
COc1cc(-c2cc(NC(C)=O)c3ncc(-c4ccc(C(C)=O)cc4)n3c2)cc(OC)c1OC | > 79 µM (inactive)
COc1cc(NC(=O)c2cc([N+](=O)[O-])ccc2NC(=O)CN2CCN(c3ccccn3)CC2)cc(OC)c1 | > 79 µM (inactive)
CCCC(=O)Nc1cc(C)c2c(=O)oc3ccccc3c2n1 | > 79 µM (inactive)
Cc1nn(-c2ccccc2)c(C)c1/C=N/NC(=O)c1cc(C(C)(C)C)[nH]n1 | 32.1 µM (inactive)
COC(=O)c1ccc(N)c(N=CC2=C(O)CC(C)(C)CC2=O)c1 | 10.8 µM
CC1CCCC(C)N1C(=O)CSc1nc2ccccc2c(=O)[nH]1 (centres undefined) | > 79 µM (inactive)
COc1ccc(N(CC(=O)Nc2cccc(C(C)=O)c2)S(=O)(=O)c2ccc(NC(C)=O)cc2)cc1 | 10.7 µM
Cc1nc(N2CCN(S(=O)(=O)c3cccc4nonc34)CC2)c2c3c(sc2n1)CCCC3 | > 79 µM (inactive)
CCOC(=O)CSc1nnc(CSc2nc3sc4c(c3c(=O)[nH]2)CCC4)n1C | > 79 µM (inactive)
O=C(O)c1ccc2c(c1)S(=O)(=O)c1cc(N3CCN(c4cnccn4)CC3)ccc1C2=O | > 79 µM (inactive)
COc1ccnc(Oc2ccccc2)c1C(=O)N/C=N/OCc1ccc(F)cc1Cl | > 79 µM (inactive)
CC(OC(=O)Cc1n[nH]c(=O)c2ccccc12)C(=O)Nc1cc(Cl)cc(Cl)c1 (centres undefined) | 22.7 µM
CN(C)Cc1ccc(-c2nc3cccc4c3n2CCNC4=O)cc1 | 49.2 µM (inactive)
CCn1c(=O)cc(OCC(=O)Nc2ccccc2C#N)c2ccccc21 | > 79 µM (inactive)
CC(C)[C@H](NC(=O)c1ccccc1Cl)C(=O)Nc1nc(-c2ccccn2)cs1 | > 79 µM (inactive)
CCN(CC)C(=O)c1[nH]cnc1C(=O)NCC(=O)OCc1ccccc1 | > 79 µM (inactive)
CC(OC(=O)Cn1[nH]c(=O)c2ccccc2c1=O)C(=O)Nc1ccc(F)cc1Cl (centres undefined) | > 79 µM (inactive)
COc1ccc(C(CC(=O)N2CCN(c3ccccc3)CC2)c2c(OC)cc(OC)c3ccc(=O)oc23)cc1 (centres undefined) | 23.2 µM
Cc1nn(-c2ccccc2)c(C)c1/C=N/NC(=O)c1cc(C2CC2)[nH]n1 | 12.5 µM
O=C1c2ccccc2NC(c2cn[nH]c2-c2ccccc2)N1O (centres undefined) | > 79 µM (inactive)
CC(=O)c1cccc(Nc2nc3ccccc3n3cnnc23)c1 | > 79 µM (inactive)

Compound | IC50
COc1ccc2o/c(=N/NC(=O)c3cccs3)c(C(N)=O)cc2c1 | 16.3 µM
N#Cc1cnn2cc(-c3ncc(C(F)(F)F)cc3Cl)cnc12 | 27.6 µM
COc1ccc(-c2cc(C(=O)N(C)Cc3ccc(OC)c(OC)c3OC)c3ccccc3n2)cc1OC | 10.4 µM
COc1ccc(NC(=O)c2cc(-c3ccc(OC)c(OC)c3)nc3ccccc23)c(OC)c1 | > 79 µM (inactive)
Cc1noc(C)c1COC(=O)COc1ccc2c(C)cc(=O)oc2c1 | > 79 µM (inactive)
CCN(C[C@H]1N[C@@](CC)(C(=O)OC)[C@H]2C(=O)N(Cc3ccccc3)C(=O)[C@@H]12)C(=O)c1ccc(C(C)(C)C)cc1 | > 79 µM (inactive)
CCOC(=O)C1CCN(c2cc3c(cc2NC(=O)c2ccccc2)n(C)c(=O)n3C)CC1 | > 79 µM (inactive)
CN(C(=O)CCc1nc2ccccc2c(=O)[nH]1)C1CCS(=O)(=O)C1 (centres undefined) | > 79 µM (inactive)
Cc1sc2nc(CSCC(=O)N(C)c3ccccc3)[nH]c(=O)c2c1C | 29.8 µM
COc1cc(/C=C/C(=O)Nc2ccc3nc4n(c(=O)c3c2)CCCC4)cc(OC)c1OC | 24.2 µM
CCCN1C(=O)c2cc(C(=O)Nc3cccc(C(C)=O)c3)ccc2C1Nc1cccc(C(C)=O)c1 (centres undefined) | 11.4 µM
NC(=O)c1cc2ccccc2o/c1=N\NC(=O)c1ccc(F)cc1 | 8.81 µM
O=C(O)c1nn(CCOc2ccc(Br)cc2)c(=O)c2ccccc12 | > 79 µM (inactive)
COc1ccc(Cl)cc1NC(=O)CCS(=O)(=O)c1cc2c(cc1C)NC(=O)CO2 | 21.5 µM
Cn1c(=O)c2[nH]c(NN=Cc3cccc(Br)c3)nc2n(C)c1=O | > 79 µM (inactive)
CC(C)n1nc(C(=O)OCC(=O)c2c[nH]c3ccccc23)c2ccccc2c1=O | > 79 µM (inactive)
O=C1c2cccnc2Oc2ccc(Cl)cc2N1Cc1ccc(F)cc1 | > 79 µM (inactive)
COc1ccc(Br)cc1/C=N/NC(=O)CNC(=O)/C=C/c1ccccc1 | > 79 µM (inactive)
CCOc1ccc2[nH]c(=O)c(CN(Cc3ccco3)C(CC)c3nnnn3Cc3ccccc3)cc2c1 (centres undefined) | > 79 µM (inactive)
O=C(Nc1ccccc1)c1nc[nH]c1C(=O)NCCCCCCNC(=O)c1[nH]cnc1C(=O)Nc1ccccc1 | 10.5 µM
O=C(COC(=O)c1ccc([N+](=O)[O-])o1)Nc1cccc(S(=O)(=O)N2CCCCC2)c1 | > 79 µM (inactive)
CCOC(=O)c1ccc(-c2ccc3ncnc(NCc4csc(C)n4)c3c2)o1 | > 79 µM (inactive)
CCN1C(=O)[C@H]2[C@H]3CN=C(SCc4ccc(C#N)cc4)N3[C@@](Cc3ccccc3)(C(=O)OC)[C@H]2C1=O | > 79 µM (inactive)
COc1ccc(Cl)cc1NC(=O)CN(C)C(=O)Cn1[nH]c(=O)c2ccccc2c1=O | > 79 µM (inactive)

Compound | IC50
CC(Oc1ccccc1)C(=O)Nc1nc(-c2ccccn2)cs1 (centres undefined) | > 79 µM (inactive)
CC(=O)NCCNc1nc2c(-c3ccccc3)nnn2c2ccccc12 | > 79 µM (inactive)
COc1cc2ccccc2cc1C(=O)NNC(=O)c1ccccc1O | > 79 µM (inactive)
CN(C)CCNc1ccc(-c2n[nH]c(=O)c3ccccc23)cc1[N+](=O)[O-] | > 79 µM (inactive)
CCOc1ccccc1Nc1nnc(SCc2nnc(-c3cc(OC)c(OC)c(OC)c3)o2)s1 | 11.1 µM
Cc1cccc(OCCn2c(NC(=O)c3ccco3)nc3ccccc32)c1 | 17.8 µM
O=C(COC(=O)c1cc(-c2cccnc2)nc2ccccc12)Nc1ccc(F)cc1F | 23.2 µM
CC12CCC3C(CCC4CC(O)CCC43C)C1CC(O)C2 (centres undefined) | > 79 µM (inactive)
Cc1[nH]c2ccccc2c1/C=N/NC(=O)c1cc(-c2cccs2)[nH]n1 | > 79 µM (inactive)
Cc1ccc(OCC(=O)NCc2n[nH]c(=O)c3ccccc23)cc1 | > 79 µM (inactive)
CC(C)C1Nc2ccc(C(=O)N3CCN(c4ccccn4)CC3)cc2NC1=O (centres undefined) | > 79 µM (inactive)
COc1ccc(C(=O)Nc2cccc(NC(=O)c3ccc(OC)c(OC)c3)n2)cc1OC | > 79 µM (inactive)
CC(OC(=O)Cc1n[nH]c(=O)c2ccccc12)C(=O)Nc1cccc([N+](=O)[O-])c1 (centres undefined) | 44.4 µM (inactive)
O=C(Oc1ccc2c(-c3ccccc3)cc(=O)oc2c1)C1CCCCC1 | 32.9 µM (inactive)
CN1CCC(N(C)C(=O)CCc2nc3ccccc3c(=O)[nH]2)CC1 | > 79 µM (inactive)
CC(=O)NCc1ccc(-c2csc(NC(=O)CCc3nc4ccccc4c(=O)[nH]3)n2)s1 | > 79 µM (inactive)
COc1ccc(C2CC(c3cccs3)n3nc(N)nc3N2)cc1 (centres undefined) | > 79 µM (inactive)
Cc1ccc(-c2nn3c(C)nnc3s2)cc1NC(=O)COc1ccc(Cl)cc1 | > 79 µM (inactive)
Oc1c(Br)cc(Br)cc1C=NCc1ccc(F)cc1 | > 79 µM (inactive)
O=C(COc1cccc2c1CCNC2=O)NC1CCCCC1 | > 79 µM (inactive)
COc1ccc2[nH]c(=O)c(CNc3ccc(C)c(C)c3)cc2c1 | 49.8 µM (inactive)
C[C@H](CO)N1C[C@H](C)[C@@H](CN(C)S(=O)(=O)c2ccc(F)cc2)Oc2ccc(NC(=O)Nc3ccc4c(c3)OCO4)cc2C1=O | 36 µM (inactive)
CC(=O)Nc1cc(-c2cccc(NS(C)(=O)=O)c2)cn2c(-c3cccc(C(C)=O)c3)cnc12 | > 79 µM (inactive)
COc1ccc(Nc2nnc(SCc3cc(=O)n4ccsc4n3)s2)cc1 | 14.1 µM

Compound | IC50
CCOc1cc(/C=N\NC(=O)c2ccc(NC(=O)C(C)(C)C)cc2)ccc1OC(=O)c1cccc(C)c1 | 15.3 µM
CCOc1ccc2nc(NC(=O)CN3CCC(n4nnc5cc(F)ccc54)CC3)sc2c1 | > 79 µM (inactive)
O=c1c(O)c(-c2ccccc2)oc2cc(O)ccc12 | > 79 µM (inactive)
NS(=O)(=O)c1ccc(CCNc2ccn3nc(-c4ccc(OCCN5CCOCC5)cc4)cc3n2)cc1 | 37.3 µM (inactive)
COc1cccc(C(=O)Nc2cc(C)c3c(=O)oc4ccccc4c3n2)c1 | > 79 µM (inactive)
COc1ccc(-c2oc3ncnc(NCCN4CCOCC4)c3c2-c2ccc(OC)cc2)cc1 | 34.3 µM (inactive)
O=C(CCCN1C(=O)c2cccc3cccc(c23)C1=O)N1CCN(c2ccccc2O)CC1 | 10.3 µM
CCOc1ccc(C(C(=O)NCC2CCCO2)N(C(=O)c2snc(C(N)=O)c2N)c2ccccc2F)cc1 (centres undefined) | 20.6 µM
COc1ccc(-c2csc(NC(=O)CCCc3nc4ccccc4c(=O)[nH]3)n2)cc1OC | 25.3 µM
COc1ccc(Cl)cc1-c1nc(-c2ccc(NC(=O)c3cccs3)cc2)no1 | > 79 µM (inactive)
O=c1[nH]n(CC2COC3(CCCCC3)O2)c(=O)c2ccccc12 (centres undefined) | > 79 µM (inactive)
CC(C(=O)NC1CCCC1)N(C(=O)Cn1nnc(-c2ccc(F)cc2)n1)c1ccccc1F (centres undefined) | > 79 µM (inactive)
CCc1nc2ccc(C(=O)NCc3cccs3)cn2c1N(C)Cc1nccs1 | 22.4 µM
O=P(Nc1ccccc1)(Oc1ccccc1)Oc1ccccc1 | > 79 µM (inactive)
CCOC(=O)Cn1c(=NC(=O)c2cc(-c3cccs3)nc3ccccc23)sc2cc(S(N)(=O)=O)ccc21 | > 79 µM (inactive)
O=c1[nH]nc(CNc2ccc(C(F)(F)F)cc2)c2ccccc12 | 15.1 µM
CCOC(=O)COc1cccc(C2NC(=O)c3ccccc3O2)c1 (centres undefined) | > 79 µM (inactive)
O=C(CN(c1ccc2c(c1)OCCO2)S(=O)(=O)c1ccccc1)Nc1ccc2c(c1)OCO2 | > 79 µM (inactive)
O=C(Nc1cccc(N=Cc2cc(Br)cc(Br)c2O)c1)c1ccco1 | > 79 µM (inactive)
Cc1ccc(-c2csc(NC(=O)Cn3[nH]c(=O)c4ccccc4c3=O)n2)cc1 | 13.8 µM
O=C(Nc1cccc(N=Cc2cc(Cl)cc(Br)c2O)c1)c1ccco1 | 26.5 µM
O=C(COc1ccc(F)cc1Cl)Nc1nc(-c2ccccn2)cs1 | > 79 µM (inactive)
